Test results reported in ChEMBL document CHEMBL4507263, “Data for DCP probe BAY-474” (2021).

How the values were obtained:
Rattus norvegicus [1] = species: Rattus norvegicus; assay: Testosterone Eurofins-Panlabs radioligand binding assay; parameters: ligand concentration 1.5 nM; details: Compound concentration 10.0 uM
[2] = biological target: Dual specificity protein kinase CLK3 (Homo sapiens) (UniProt P49761); assay: CLK3 (h) Millipore kinase activity assay; details: Compound concentration 1.0 uM
[3] = biological target: Protein kinase C delta type (Homo sapiens) (UniProt Q05655); assay: PKCdelta (h) Millipore kinase activity assay; details: Compound concentration 1.0 uM
Rattus norvegicus [4] = species: Rattus norvegicus; assay: Inhibition of Glutamate, NMDA, Phencyclidine at 10 µM in the Eurofins-Panlabs radioligand binding assay (Eurofins_assay_233000); assay type: protein-complex assay; details: Compound concentration 10.0 uM
[5] = biological target: Mitogen-activated protein kinase 1 (Homo sapiens) (UniProt P28482); assay: MAPK1 (h) Millipore kinase activity assay; details: Compound concentration 1.0 uM
[6] = biological target: Serine/threonine-protein kinase WNK2 (Homo sapiens) (UniProt Q9Y3S1); assay: WNK2 (h) Millipore kinase activity assay; details: Compound concentration 1.0 uM
[7] = biological target: ATP-sensitive inward rectifier potassium channel 11 (Cricetulus griseus) (UniProt A0A3L7HHE1); assay: Inhibition of Potassium Channel [KATP] at 10 µM in the Eurofins-Panlabs radioligand binding assay (Eurofins_assay_265600); details: Cricetinae; Compound concentration 10.0 uM
[8] = biological target: Glycogen synthase kinase-3 alpha (Homo sapiens) (UniProt P49840); assay: GSK3alpha (h) Millipore kinase activity assay; details: Compound concentration 1.0 uM
[9] = biological target: Testis-specific serine/threonine-protein kinase 1 (Homo sapiens) (UniProt Q9BXA7); assay: TSSK1 (h) Millipore kinase activity assay; details: Compound concentration 1.0 uM
[10] = biological target: Muscle, skeletal receptor tyrosine-protein kinase (Homo sapiens) (UniProt O15146); assay: MuSK (h) Millipore kinase activity assay; details: Compound concentration 1.0 uM
[11] = biological target: Serine/threonine-protein kinase DCLK2 (Homo sapiens) (UniProt Q8N568); assay: DCAMKL2 (h) Millipore kinase activity assay; details: Compound concentration 1.0 uM
[12] = biological target: Mitogen-activated protein kinase 1 (Homo sapiens) (UniProt P28482); assay: MAPK2( h) Millipore kinase activity assay; details: Compound concentration 1.0 uM
[13] = biological target: GABA-A receptor; anion channel (Rattus norvegicus) (UniProt O09028+P15431+P18506+P18508+P19969+P20236+P23574+P23576+P28471+P28473+P30191+P62813+P63079+P63138+Q91ZM7+Q9ES14); details: Compound concentration 10.0 uM
[14] = biological target: Protein kinase C beta type (Homo sapiens) (UniProt P05771); assay: PKCbetaII (h) Millipore kinase activity assay; details: Compound concentration 1.0 uM
Rattus norvegicus [15] = species: Rattus norvegicus; assay: Inhibition of Rolipram at 10 µM in the Eurofins-Panlabs radioligand binding assay (Eurofins_assay_268811); assay type: protein assay; parameters: ligand concentration 1.8 nM; details: Compound concentration 10.0 uM
[16] = biological target: Tyrosine-protein kinase SYK (Homo sapiens) (UniProt P43405); assay: Syk (h) Millipore kinase activity assay; details: Compound concentration 1.0 uM
[17] = biological target: Death-associated protein kinase 2 (Homo sapiens) (UniProt Q9UIK4); assay: DAPK2 (h) Millipore kinase activity assay; details: Compound concentration 1.0 uM
[18] = biological target: Tyrosine-protein kinase Fes/Fps (Homo sapiens) (UniProt P07332); details: Compound concentration 1000.0 nM
[19] = biological target: Serine/threonine-protein kinase 3 (Homo sapiens) (UniProt Q13188); details: Compound concentration 1000.0 nM
[20] = biological target: Phosphatidylinositol 4,5-bisphosphate 3-kinase catalytic subunit alpha isoform (Homo sapiens) (UniProt P42336); details: Compound concentration 1000.0 nM
[21] = biological target: Ribosomal protein S6 kinase alpha-5 (Homo sapiens) (UniProt O75582); details: Compound concentration 1000.0 nM
[22] = biological target: Calcium-dependent protein kinase 1 (Plasmodium falciparum) (UniProt P62344); details: Compound concentration 1000.0 nM
[23] = biological target: cAMP-dependent protein kinase catalytic subunit alpha (Homo sapiens) (UniProt P17612); details: Compound concentration 1000.0 nM
[24] = biological target: Protein kinase C iota type (Homo sapiens) (UniProt P41743); details: Compound concentration 1000.0 nM
[25] = biological target: Misshapen-like kinase 1 (Homo sapiens) (UniProt Q8N4C8); details: Compound concentration 1000.0 nM
[26] = biological target: Serine/threonine-protein kinase OSR1 (Homo sapiens) (UniProt O95747); details: Compound concentration 1000.0 nM
[27] = biological target: Phosphatidylinositol 4,5-bisphosphate 3-kinase catalytic subunit delta isoform (Homo sapiens) (UniProt O00329); details: Compound concentration 1000.0 nM
[28] = biological target: Ribosomal protein S6 kinase alpha-6 (Homo sapiens) (UniProt Q9UK32); details: Compound concentration 1000.0 nM
[29] = biological target: Cyclin-dependent kinase 17 (Homo sapiens) (UniProt Q00537); details: Compound concentration 1000.0 nM
[30] = biological target: Serine/threonine-protein kinase BRSK2 (Homo sapiens) (UniProt Q8IWQ3); details: Compound concentration 1000.0 nM
[31] = biological target: Serine/threonine-protein kinase PAK 6 (Homo sapiens) (UniProt Q9NQU5); details: Compound concentration 1000.0 nM
[32] = biological target: Phosphatidylinositol 5-phosphate 4-kinase type-2 beta (Homo sapiens) (UniProt P78356); details: Compound concentration 1000.0 nM
[33] = biological target: Calcium/calmodulin-dependent protein kinase type 1D (Homo sapiens) (UniProt Q8IU85); details: Compound concentration 1000.0 nM
[34] = biological target: Tyrosine-protein kinase CSK (Homo sapiens) (UniProt P41240); details: Compound concentration 1000.0 nM
[35] = biological target: STE20-like serine/threonine-protein kinase (Homo sapiens) (UniProt Q9H2G2); details: Compound concentration 1000.0 nM
[36] = biological target: Mitogen-activated protein kinase 13 (Homo sapiens) (UniProt O15264); details: Compound concentration 1000.0 nM
[37] = biological target: Serine/threonine-protein kinase BRSK1 (Homo sapiens) (UniProt Q8TDC3); details: Compound concentration 1000.0 nM
[38] = biological target: Serine/threonine-protein kinase Nek2 (Homo sapiens) (UniProt P51955); details: Compound concentration 1000.0 nM
[39] = test system: Tyrosine-protein kinase ABL1 (Homo sapiens), P00519 [F317L]; details: Compound concentration 1000.0 nM
[40] = biological target: Serine/threonine-protein kinase PAK 3 (Homo sapiens) (UniProt O75914); details: Compound concentration 1000.0 nM
[41] = test system: Phosphatidylinositol 4,5-bisphosphate 3-kinase catalytic subunit alpha isoform (Homo sapiens), P42336 [H1047L]; details: Compound concentration 1000.0 nM
[42] = biological target: Atypical kinase COQ8B, mitochondrial (Homo sapiens) (UniProt Q96D53); details: Compound concentration 1000.0 nM
[43] = biological target: Tyrosine-protein kinase Fer (Homo sapiens) (UniProt P16591); details: Compound concentration 1000.0 nM
[44] = test system: Tyrosine-protein kinase ABL1 (Homo sapiens), P00519 [T315I]; details: Compound concentration 1000.0 nM

Chain of Mitogen-activated protein kinase 1 (Homo sapiens) (P28482 whole entry): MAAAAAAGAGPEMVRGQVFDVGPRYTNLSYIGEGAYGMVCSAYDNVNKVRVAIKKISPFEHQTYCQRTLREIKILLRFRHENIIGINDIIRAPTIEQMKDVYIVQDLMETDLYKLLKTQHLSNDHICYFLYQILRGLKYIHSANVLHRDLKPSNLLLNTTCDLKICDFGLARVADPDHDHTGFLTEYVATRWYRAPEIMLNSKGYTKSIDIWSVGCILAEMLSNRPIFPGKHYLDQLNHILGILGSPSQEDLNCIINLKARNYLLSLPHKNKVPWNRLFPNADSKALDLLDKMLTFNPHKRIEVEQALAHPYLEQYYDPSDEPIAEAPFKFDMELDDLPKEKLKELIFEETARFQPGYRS
Chain of Muscle, skeletal receptor tyrosine-protein kinase (Homo sapiens) (O15146 whole entry): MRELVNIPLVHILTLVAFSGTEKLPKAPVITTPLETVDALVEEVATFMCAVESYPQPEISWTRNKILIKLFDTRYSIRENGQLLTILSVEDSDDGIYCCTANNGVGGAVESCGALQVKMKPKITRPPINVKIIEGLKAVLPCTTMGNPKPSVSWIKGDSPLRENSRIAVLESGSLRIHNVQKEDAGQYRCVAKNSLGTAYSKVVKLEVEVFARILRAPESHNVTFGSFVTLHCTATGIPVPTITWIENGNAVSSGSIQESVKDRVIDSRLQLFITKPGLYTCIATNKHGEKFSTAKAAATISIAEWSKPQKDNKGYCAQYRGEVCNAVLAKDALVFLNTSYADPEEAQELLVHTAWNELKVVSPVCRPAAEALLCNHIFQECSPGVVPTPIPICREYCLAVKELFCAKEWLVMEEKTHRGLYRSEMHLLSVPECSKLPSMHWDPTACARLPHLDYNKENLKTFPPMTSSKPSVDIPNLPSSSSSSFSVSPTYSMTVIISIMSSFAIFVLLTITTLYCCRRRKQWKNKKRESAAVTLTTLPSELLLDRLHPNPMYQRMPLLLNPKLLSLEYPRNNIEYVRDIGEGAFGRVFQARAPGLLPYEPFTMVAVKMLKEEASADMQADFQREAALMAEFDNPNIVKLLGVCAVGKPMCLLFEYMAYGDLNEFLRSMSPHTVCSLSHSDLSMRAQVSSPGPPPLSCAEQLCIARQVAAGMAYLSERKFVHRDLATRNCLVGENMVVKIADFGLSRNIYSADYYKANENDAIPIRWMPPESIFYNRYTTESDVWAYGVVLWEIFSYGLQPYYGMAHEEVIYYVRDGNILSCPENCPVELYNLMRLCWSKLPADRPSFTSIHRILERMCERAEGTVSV
Chain of Phosphatidylinositol 4,5-bisphosphate 3-kinase catalytic subunit delta isoform (Homo sapiens) (O00329 whole entry, canonical isoform): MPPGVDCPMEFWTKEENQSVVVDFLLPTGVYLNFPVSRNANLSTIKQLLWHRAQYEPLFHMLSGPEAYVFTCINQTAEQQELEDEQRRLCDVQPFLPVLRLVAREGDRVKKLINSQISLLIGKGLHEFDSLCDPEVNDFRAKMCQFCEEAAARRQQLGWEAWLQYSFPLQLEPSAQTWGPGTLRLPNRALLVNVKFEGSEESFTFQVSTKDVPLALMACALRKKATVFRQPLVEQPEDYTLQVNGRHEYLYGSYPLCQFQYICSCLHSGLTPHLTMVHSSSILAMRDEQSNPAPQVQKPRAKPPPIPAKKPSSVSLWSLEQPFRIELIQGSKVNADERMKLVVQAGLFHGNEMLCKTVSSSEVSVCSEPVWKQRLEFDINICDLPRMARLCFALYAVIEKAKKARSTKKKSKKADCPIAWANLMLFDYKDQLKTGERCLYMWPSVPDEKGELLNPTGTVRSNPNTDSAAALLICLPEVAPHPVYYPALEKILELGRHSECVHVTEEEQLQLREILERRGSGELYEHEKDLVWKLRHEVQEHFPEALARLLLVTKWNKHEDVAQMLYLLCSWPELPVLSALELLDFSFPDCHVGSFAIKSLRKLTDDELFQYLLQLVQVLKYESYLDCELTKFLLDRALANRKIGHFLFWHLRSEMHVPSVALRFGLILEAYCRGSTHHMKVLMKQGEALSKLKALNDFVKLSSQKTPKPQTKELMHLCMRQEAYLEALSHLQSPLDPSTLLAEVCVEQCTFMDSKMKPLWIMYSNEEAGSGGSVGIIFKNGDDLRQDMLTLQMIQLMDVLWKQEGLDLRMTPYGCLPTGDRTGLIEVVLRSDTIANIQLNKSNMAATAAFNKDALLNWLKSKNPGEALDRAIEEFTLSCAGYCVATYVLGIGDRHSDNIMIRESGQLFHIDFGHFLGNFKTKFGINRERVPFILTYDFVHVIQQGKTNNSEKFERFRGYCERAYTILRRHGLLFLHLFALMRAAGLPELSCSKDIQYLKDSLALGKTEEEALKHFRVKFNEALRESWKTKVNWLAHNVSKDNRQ
Chain of Tyrosine-protein kinase CSK (Homo sapiens) (P41240 2-450 limits assumed): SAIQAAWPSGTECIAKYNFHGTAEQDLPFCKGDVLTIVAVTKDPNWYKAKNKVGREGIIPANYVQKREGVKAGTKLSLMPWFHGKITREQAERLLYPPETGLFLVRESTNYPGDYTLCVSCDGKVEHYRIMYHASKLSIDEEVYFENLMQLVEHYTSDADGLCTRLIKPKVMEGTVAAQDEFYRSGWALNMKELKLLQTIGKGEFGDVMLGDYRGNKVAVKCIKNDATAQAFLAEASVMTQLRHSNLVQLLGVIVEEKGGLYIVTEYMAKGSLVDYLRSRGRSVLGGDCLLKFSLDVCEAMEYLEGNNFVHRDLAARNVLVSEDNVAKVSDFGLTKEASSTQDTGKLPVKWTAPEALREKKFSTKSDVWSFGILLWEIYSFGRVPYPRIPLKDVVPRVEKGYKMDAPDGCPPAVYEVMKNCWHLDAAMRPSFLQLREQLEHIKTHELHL
Chain of Serine/threonine-protein kinase OSR1 (Homo sapiens) (O95747 2-527 limits assumed): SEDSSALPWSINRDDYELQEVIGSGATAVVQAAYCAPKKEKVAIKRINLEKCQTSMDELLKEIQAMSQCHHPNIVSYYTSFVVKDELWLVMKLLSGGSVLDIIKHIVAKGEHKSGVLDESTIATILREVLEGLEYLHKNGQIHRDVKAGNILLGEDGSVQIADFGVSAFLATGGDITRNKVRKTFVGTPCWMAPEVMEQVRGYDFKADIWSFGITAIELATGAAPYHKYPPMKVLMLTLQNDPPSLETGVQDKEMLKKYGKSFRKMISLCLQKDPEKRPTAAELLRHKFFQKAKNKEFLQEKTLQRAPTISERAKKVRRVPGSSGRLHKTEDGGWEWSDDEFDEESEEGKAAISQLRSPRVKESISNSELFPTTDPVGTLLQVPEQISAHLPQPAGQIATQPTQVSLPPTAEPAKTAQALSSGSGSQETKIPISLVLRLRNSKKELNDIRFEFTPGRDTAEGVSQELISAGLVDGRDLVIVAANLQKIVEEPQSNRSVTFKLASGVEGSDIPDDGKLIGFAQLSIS
Chain of Atypical kinase COQ8B, mitochondrial (Homo sapiens) (Q96D53 whole entry): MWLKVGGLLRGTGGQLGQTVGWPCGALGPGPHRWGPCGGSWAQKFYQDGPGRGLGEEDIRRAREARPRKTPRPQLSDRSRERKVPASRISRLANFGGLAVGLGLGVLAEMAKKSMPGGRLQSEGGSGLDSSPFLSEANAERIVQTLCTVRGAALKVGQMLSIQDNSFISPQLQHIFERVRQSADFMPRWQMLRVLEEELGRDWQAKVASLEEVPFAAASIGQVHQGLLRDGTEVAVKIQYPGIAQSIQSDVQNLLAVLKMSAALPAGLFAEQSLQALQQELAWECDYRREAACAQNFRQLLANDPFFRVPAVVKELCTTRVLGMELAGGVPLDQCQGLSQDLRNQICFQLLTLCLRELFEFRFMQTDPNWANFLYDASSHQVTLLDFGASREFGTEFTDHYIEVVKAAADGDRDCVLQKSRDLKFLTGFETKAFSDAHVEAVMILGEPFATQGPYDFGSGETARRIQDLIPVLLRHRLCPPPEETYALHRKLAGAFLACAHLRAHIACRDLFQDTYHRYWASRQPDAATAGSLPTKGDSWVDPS
Chain of Serine/threonine-protein kinase PAK 3 (Homo sapiens) (O75914 whole entry, looked up, canonical isoform): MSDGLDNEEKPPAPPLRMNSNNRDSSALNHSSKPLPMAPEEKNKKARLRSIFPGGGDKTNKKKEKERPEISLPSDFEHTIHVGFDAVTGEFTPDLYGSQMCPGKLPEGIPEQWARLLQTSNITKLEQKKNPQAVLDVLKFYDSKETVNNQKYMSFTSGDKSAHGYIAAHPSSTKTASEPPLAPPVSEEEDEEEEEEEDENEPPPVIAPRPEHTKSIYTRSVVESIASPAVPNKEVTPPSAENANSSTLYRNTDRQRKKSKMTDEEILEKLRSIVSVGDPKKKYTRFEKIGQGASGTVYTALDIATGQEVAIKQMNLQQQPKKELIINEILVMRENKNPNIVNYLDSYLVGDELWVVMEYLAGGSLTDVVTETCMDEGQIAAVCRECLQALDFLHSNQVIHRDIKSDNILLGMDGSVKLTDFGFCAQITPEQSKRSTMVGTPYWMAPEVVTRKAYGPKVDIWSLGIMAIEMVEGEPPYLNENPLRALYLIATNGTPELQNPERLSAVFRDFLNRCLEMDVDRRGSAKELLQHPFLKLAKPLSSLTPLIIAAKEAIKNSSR
Chain of Calcium/calmodulin-dependent protein kinase type 1D (Homo sapiens) (Q8IU85 whole entry, looked up): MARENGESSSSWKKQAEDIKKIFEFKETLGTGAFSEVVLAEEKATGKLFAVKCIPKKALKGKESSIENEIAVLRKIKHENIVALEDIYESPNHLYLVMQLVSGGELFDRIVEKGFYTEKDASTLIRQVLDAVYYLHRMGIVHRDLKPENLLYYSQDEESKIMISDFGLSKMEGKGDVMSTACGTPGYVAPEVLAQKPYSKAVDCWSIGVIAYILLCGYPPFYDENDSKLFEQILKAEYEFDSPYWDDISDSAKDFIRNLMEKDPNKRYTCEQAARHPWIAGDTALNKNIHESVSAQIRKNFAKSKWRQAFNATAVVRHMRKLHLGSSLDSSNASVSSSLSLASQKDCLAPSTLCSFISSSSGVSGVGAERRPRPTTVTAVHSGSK

CC1=C(C#N)C(c2ccc3[nH]nc(C)c3c2)C(C#N)=C(C)N1 [BAY-474]
inactive: inhibition (Rattus norvegicus [1]) 12% | inhibition [2] -1% | inhibition [3] 2% | inhibition (Rattus norvegicus [4]) 4% | inhibition [5] 4% | inhibition [6] -8% | inhibition [7] 9% | inhibition [8] -3% | inhibition [9] 27% | inhibition [10] 19% | inhibition [11] -5% | inhibition [12] 4% | inhibition [13] -2% | inhibition [14] 7% | inhibition (Rattus norvegicus [15]) 10% | inhibition [16] 8% | inhibition [17] -4%

CC1=C(C#N)[C@@H](c2ccc3[nH]nc(C)c3c2)C(C#N)=C(c2ccc(Cl)cc2)N1 [BAY-827]
inactive: residual activity [18] 100% | residual activity [19] 100% | residual activity [20] 100% | residual activity [21] 100% | residual activity [22] 100% | residual activity [23] 96.7% | residual activity [24] 99.4% | residual activity [25] 77% | residual activity [26] 100% | residual activity [27] 100% | residual activity [28] 100% | residual activity [29] 87.2% | residual activity [30] 100% | residual activity [31] 100% | residual activity [32] 69.3% | residual activity [33] 100% | residual activity [34] 100% | residual activity [35] 100% | residual activity [36] 100% | residual activity [37] 100% | residual activity [38] 100% | residual activity [39] 94.2% | residual activity [40] 100% | residual activity [41] 100% | residual activity [42] 78.8% | residual activity [43] 97.9% | residual activity [44] 88.1%
